Assay results from ChEMBL document CHEMBL5465560, “Selectivity Literature for EUbOPEN Chemogenomic Library” (2024).

Tests used:
[1] = target: Mitogen-activated protein kinase kinase kinase kinase 1 (Homo sapiens) (UniProt Q92918); assay: Selectivity interaction (KinomeScan (DiscoverX)) EUB0000655a MAP4K1; conditions: at 10 µM
[2] = target: Serine/threonine-protein kinase 24 (Homo sapiens) (UniProt Q9Y6E0); assay: Selectivity interaction (Kinase panel (KiNativ target engagement assay in Jurkat cells)) EUB0001635a STK24; format: cell-based; conditions: Selectivity number of off-targets 0.0, Selectivity number of targets 233.0, Source Knowledge https://www.sciencedirect.com/science/article/pii/S2451945619300674?via%3Dihub, at 1 µM
[3] = target: T1, STE20-related kinase adapter protein alpha (Homo sapiens) (UniProt Q7RTN6); assay: Selectivity interaction (ActivX KiNativ screen (kinase selectivity in THP-1 cell lysates)) EUB0000639a STRADA; format: subcellular; conditions: lysate, at 0.2 µM
T1 sequence (whole entry): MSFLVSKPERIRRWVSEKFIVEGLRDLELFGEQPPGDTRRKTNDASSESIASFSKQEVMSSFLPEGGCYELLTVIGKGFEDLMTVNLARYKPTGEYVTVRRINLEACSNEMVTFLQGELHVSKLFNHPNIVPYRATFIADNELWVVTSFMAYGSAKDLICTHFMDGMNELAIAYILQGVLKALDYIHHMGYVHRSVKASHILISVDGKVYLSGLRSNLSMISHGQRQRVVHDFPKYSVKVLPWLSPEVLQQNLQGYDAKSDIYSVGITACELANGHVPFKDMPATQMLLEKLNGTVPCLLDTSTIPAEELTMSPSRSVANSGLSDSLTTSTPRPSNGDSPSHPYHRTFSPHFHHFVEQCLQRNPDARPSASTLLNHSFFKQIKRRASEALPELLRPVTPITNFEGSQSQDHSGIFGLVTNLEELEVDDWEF

[4] = target: T2, Mitogen-activated protein kinase kinase kinase 3 (Homo sapiens) (UniProt Q99759); assay: Selectivity interaction (ActivX KiNativ screen (kinase selectivity in THP-1 cell lysates)) EUB0000639a MAP3K3; format: subcellular; conditions: lysate
T2 sequence (whole entry): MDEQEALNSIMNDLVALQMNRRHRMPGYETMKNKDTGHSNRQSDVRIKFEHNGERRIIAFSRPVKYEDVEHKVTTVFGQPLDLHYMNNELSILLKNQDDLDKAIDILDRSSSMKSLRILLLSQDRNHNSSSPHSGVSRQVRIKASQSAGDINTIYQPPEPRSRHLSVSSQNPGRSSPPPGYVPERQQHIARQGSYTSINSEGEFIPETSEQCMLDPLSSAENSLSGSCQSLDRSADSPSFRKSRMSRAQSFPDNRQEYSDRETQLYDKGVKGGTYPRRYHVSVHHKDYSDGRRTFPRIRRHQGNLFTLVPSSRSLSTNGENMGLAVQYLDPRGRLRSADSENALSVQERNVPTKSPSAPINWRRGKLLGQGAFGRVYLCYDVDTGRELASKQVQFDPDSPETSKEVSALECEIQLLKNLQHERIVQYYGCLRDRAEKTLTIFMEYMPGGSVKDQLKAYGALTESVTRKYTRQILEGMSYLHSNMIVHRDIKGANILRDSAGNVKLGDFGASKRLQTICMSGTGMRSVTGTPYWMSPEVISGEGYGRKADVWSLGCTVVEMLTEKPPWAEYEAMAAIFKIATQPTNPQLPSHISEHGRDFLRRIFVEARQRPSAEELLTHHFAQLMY

[5] = target: T3, Dual specificity tyrosine-phosphorylation-regulated kinase 2 (Homo sapiens) (UniProt Q92630); assay: Selectivity interaction (KinomeScan (DiscoverX)) EUB0001049a DYRK2; conditions: at 1 µM
T3 sequence (whole entry): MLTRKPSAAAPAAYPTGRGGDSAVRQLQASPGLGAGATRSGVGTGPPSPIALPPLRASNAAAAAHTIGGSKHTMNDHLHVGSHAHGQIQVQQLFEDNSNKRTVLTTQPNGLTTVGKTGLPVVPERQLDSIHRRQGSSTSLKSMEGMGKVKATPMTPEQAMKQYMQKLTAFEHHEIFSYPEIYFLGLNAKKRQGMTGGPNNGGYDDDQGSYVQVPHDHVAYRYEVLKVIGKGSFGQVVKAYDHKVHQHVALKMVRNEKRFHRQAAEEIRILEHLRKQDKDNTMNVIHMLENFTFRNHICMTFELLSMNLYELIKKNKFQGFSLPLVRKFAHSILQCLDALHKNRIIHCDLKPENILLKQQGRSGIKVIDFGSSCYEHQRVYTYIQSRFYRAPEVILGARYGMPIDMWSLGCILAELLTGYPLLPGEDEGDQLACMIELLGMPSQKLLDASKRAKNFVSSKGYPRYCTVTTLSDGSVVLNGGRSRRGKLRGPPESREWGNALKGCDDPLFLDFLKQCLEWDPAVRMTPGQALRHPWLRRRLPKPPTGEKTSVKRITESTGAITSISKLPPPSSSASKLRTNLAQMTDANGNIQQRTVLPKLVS

[6] = target: T4, Histone-lysine N-methyltransferase SETD7 (Homo sapiens) (UniProt Q8WTS6); conditions: at 1 µM
T4 sequence (whole entry): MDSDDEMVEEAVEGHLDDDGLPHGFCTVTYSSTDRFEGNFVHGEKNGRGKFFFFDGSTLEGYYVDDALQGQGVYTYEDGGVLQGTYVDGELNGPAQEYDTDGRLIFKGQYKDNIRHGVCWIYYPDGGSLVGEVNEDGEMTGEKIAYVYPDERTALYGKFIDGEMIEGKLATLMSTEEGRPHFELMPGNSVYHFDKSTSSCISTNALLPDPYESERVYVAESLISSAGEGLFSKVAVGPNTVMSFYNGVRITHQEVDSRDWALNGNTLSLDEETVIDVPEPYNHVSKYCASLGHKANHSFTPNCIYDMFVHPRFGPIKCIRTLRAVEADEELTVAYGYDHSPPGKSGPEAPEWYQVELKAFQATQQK

Mitogen-activated protein kinase kinase kinase kinase 1 (Homo sapiens), sequence (Q92918 whole entry, looked up): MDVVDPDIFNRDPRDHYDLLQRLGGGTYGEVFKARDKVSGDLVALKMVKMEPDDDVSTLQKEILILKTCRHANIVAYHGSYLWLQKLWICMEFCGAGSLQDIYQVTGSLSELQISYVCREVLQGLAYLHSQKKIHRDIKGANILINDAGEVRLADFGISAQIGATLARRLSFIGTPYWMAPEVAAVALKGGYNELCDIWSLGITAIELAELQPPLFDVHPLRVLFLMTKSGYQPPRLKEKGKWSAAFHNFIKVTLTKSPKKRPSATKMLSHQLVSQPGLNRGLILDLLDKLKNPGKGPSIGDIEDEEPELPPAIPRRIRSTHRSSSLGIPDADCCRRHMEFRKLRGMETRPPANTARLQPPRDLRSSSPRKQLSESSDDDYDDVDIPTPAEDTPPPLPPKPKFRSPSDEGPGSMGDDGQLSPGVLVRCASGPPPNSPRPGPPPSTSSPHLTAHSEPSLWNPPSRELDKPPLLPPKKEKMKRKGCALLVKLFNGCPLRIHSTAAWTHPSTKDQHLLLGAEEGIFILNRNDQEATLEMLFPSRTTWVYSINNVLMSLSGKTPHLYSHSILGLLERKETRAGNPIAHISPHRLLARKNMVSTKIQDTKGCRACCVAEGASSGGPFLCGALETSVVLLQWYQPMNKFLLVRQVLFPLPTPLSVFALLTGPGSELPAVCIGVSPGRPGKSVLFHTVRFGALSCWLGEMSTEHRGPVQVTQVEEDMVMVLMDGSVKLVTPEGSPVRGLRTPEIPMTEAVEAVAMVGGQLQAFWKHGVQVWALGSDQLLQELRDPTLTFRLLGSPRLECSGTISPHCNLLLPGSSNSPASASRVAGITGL
Serine/threonine-protein kinase 24 (Homo sapiens), sequence (Q9Y6E0 whole entry, looked up): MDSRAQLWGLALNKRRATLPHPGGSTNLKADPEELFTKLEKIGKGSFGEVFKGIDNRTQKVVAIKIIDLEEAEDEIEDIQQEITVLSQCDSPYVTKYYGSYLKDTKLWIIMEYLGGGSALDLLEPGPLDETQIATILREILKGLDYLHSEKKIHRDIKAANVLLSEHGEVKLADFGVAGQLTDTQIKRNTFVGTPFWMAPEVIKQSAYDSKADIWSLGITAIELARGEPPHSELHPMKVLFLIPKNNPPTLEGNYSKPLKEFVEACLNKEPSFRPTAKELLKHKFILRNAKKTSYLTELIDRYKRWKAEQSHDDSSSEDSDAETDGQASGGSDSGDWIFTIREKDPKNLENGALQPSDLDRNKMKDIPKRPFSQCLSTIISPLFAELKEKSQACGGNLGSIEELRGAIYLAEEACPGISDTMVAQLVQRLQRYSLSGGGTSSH

SMILES: CN(C)CCOc1ccc(-c2nc(-c3ccncc3)c(-c3ccc4c(c3)CC/C4=N\O)[nH]2)cc1
- % of control [1]: 97%

SMILES: C=CC(=O)Nc1ccc(C(=O)Nc2[nH]nc3c2CN(C(=O)N[C@H](CN(C)C)c2ccccc2)C3(C)C)cc1
- % of engagement [2]: 41.8%

SMILES: CC[C@@H]1[C@H](F)C(=O)N[C@@H]1COc1nccc2cc(C(N)=O)c(OC)cc12 [ZIMLOVISERTIB]
- % of inhibition [3]: -15.4%
- % of inhibition ([4]; at 0.01 µM): 8.7%
- % of inhibition ([4]; at 0.04 µM): 1.8%
- % of inhibition ([4]; at 0.2 µM): -1.4%
- % of inhibition ([4]; at 1 µM): -7.6%
- % of inhibition ([4]; at 5 µM): 12.6%

SMILES: COc1cc(Nc2nc(C)cc(-c3cnn4nc(OC)ccc34)n2)cc(C(F)(F)F)c1
- % of control [5]: 79%

SMILES: CNCCN1CCC(c2cc(CN(C)C(=O)c3cccc(Oc4ccccc4)c3)ccn2)CC1
- % activity [6]: > 90%
